Converted amounts (≈) assume the structure as drawn. Read-outs that look alike come from different tables or passages of the source. Square brackets hold non-standard residues; d marks the D form. Ends that are not written are not given here. Peptide text beside a SMILES is read from it.

Data set [1] can be described thus: XTT proliferation (cytotoxicity) assay, normal fibroblasts. The class given is cell-based, mouse. The following applies: mouse, NIH-3T3 normal mouse fibroblasts, read-out: Lethal Concentration (LC50). On the procedure:
(§1) The CL1 human prostate carcinoma (PC) cell line is an androgen-independent (AI) subclone of LNCaP cell line, which was generated by culturing androgen-dependent (AD) LNCaP cells in charcoal-stripped, […], as described (Patel et al. 2000). 22RV1 human PC cells are AI sub-clones of the AD prostatic adenocarcinoma CWR22 xenograft (Sramkoski et al. 1999). CL1 and 22RV1 (ATCC, USA) were grown in RPMI-1640 supplemented with 10% FCS (Biological Industries, Beit Haemek, Israel). PC3 and DU145 are androgen-insensitive (AI) (non-responsive), invasive human prostate cancer cell lines. NIH-3T3 mouse fibroblast cell lines (ATCC, USA) were grown in DMEM supplemented with 10% BS. Murine Lewis lung carcinoma (LLC) cell lines were also grown in DMEM medium supplemented with 10% fetal calf serum and antibiotics under the same conditions as above.
(§2) The anticancer activity of the diastereomers 1, 5 and 11-16, 36-39, 42 and 44 was examined against human CL1 prostate cancer, murine LLC (Lewis lung carcinoma), DU 145 and PC3 cell lines. The cell selectivity of the diastereomeric peptides was also studied by examining their effect on NIH-3T3 normal mouse fibroblasts cell line.
(§3) A 96-well plate (Falcon) was used for the XTT proliferation assay. Cancer cells were grown for 24 hours (day 1) in RPMI-1640 medium ([…] cells/100 μl for LLC, CL1, 22RVI, DU 145 and PC3, respectively) supplemented with 10% fetal calf serum and antibiotics, at 37° C., in humidified atmosphere at 5% CO2 and 95% air, resulting in growth medium pH of 7.4. NIH-3T3 fibroblast cells (1×10^4 cells/100 μl) were grown in DMEM medium supplemented with 10% bovine calf serum and antibiotics under the same conditions as described above for the cancerous cells. Wells in the last two rows served as blanks (medium only, for measuring the background color of the medium) and 100% survival controls (cells and medium only without treatment), respectively.
(§4) In day 2, the peptides were dissolved in sterile PBS to a concentration of 200 μM (or 500 μM). The medium in the assay wells was replaced with 100 μl serum free medium. For the assays at pH 6, the medium was initially concentrated (×5 or ×10) and then diluted with double distilled water and addition of sodium carbonate. Before reaching the correct dilution, the medium was adjusted to pH 6 and then more water was added to reach the final dilution. The cells were grown in physiological pH, and the acidic pH was used only during the 24 hours incubation with the peptides. A sign for the correct acidity was a light yellow color of the medium. In line A of the plate, 160 μl of serum free medium was added, if the initial peptide concentration was 500 μM.
(§5) Peptide solutions, 100 μl (or 40 μl) were added to each assay well in line A, such that the final concentration of the peptide was […] and the volume 200 μl. The medium in the wells was mixed with multichannel pipette 5 times and 100 μl of it were transferred to the next row of wells (line B), to give a peptide concentration of 50 μM. The double dilution of the peptides continued downstream the plate in the same manner. The plates were then incubated for 24 h.
(§6) In day 3, XTT reaction solution was prepared by adding to 100 μl aliquots of activation solution (sodium 3′-[1-(phenyl-aminocarbonyl)-3,4-tetrazolium]-bis(4-methoxy-6-nitro) benzene sulfonic acid hydrate and N-methyl dibenzopyrazine methyl sulfate; mixed in a proportion of 50:1) (protected from light and kept in −20° C.), the substrate. 50 μl of XTT reaction solution were added to each well and the plates were incubated for 2 hours (37° C. and 5% CO2+95% air. In cases the incubation was not enough for the creation of the color, it was extended for up to 24 hours). The optical density was read at wavelength of 450 nm in an ELISA plate reader. Cell viability was determined relative to the control and final results were recorded. The results were confirmed using replications in at least three independent experiments. […]
(In general: Tetrazolium dyes change colour on reduction, which living cells bring about.)

The test system of data set [2] is CL1 human prostate carcinoma cell line. The experiment in a line: XTT proliferation (cytotoxicity) assay, CL1. The class given is cell-based. As to the method: as §1, §2, §3, §4, §5, §6
In data set [3] the test system is 22RV1 human PC cells. The experiment in a line: XTT proliferation (cytotoxicity) assay, 22RV1. Type of data set: cell-based. As to the method:
as §1, §3, §4, §5
In day 3, XTT reaction solution was prepared by adding to 100 μl aliquots of activation solution (sodium 3′-[1-(phenyl-aminocarbonyl)-3,4-tetrazolium]-bis(4-methoxy-6-nitro) benzene sulfonic acid hydrate and N-methyl dibenzopyrazine methyl sulfate; mixed in a proportion of 50:1) (protected from light and kept in −20° C.), the substrate. 50 μl of XTT reaction solution were added to each well and the plates were incubated for 2 hours (37° C. and 5% CO2+95% air. In cases the incubation was not enough for the creation of the color, it was extended for up to 24 hours). The optical density was read at wavelength of 450 nm in an ELISA plate reader. Cell viability was determined relative to the control and final results were recorded. The results were confirmed using replications in at least three independent experiments. The LC50 for each peptide was obtained from the curve of cell viability versus concentration of peptide and taken from the concentration at which cell viability was 50%. The data shown in Table 1 are for only one experiment, but representative of all replications.

Data set [4] relates to Murine Lewis lung carcinoma (LLC) cell line. Kind of data set: XTT proliferation (cytotoxicity) assay, LLC. Type of data set: cell-based. As to the method:
as §1, §2, §3, §4, §5, §6

Data set [5] has as its system DU145 human prostate cancer cell line. The experiment in a line: XTT proliferation (cytotoxicity) assay, DU145. The class given is cell-based. On the procedure: as §1, §2, §3, §4, §5, §6
Data set [6] deals with PC3 human prostate cancer cell line. Kind of data set: XTT proliferation (cytotoxicity) assay, PC3. The class given is cell-based. The note with it: PC3, pH 7.4, 24 h. As to the method:
as §1, §2
A 96-well plate (Falcon) was used for the XTT proliferation assay. Cancer cells were grown for 24 hours (day 1) in RPMI-1640 medium (5×10^3, 7×10^3, 1×10^4 and 7×10^3 cells/100 μl for LLC, CL1, 22RVI, DU 145 and PC3, respectively) supplemented with 10% fetal calf serum and antibiotics, at 37° C., in humidified atmosphere at 5% CO2 and 95% air, resulting in growth medium pH of 7.4. […]
In day 3, XTT reaction solution was prepared by adding to 100 μl aliquots of activation solution (sodium 3′-[1-(phenyl-aminocarbonyl)-3,4-tetrazolium]-bis(4-methoxy-6-nitro) benzene sulfonic acid hydrate and N-methyl dibenzopyrazine methyl sulfate; mixed in a proportion of 50:1) (protected from light and kept in −20° C.), the substrate. […] The optical density was read at wavelength of 450 nm in an ELISA plate reader. Cell viability was determined relative to the control and final results were recorded. […]

Data set [7] is described as follows: Acute toxicity test in mice (intravenous). Type of data set: in vivo. The following applies: for mortality: mice. On the procedure:
Acute toxicity of peptides 1, 13 and 16 was examined by intravenously injecting mice (n=3), each with one dose per day for 2 days of 0.5 ml solution containing peptides 1, 13 or 16 at 3, 9, 15, 20 and 30 mg/kg of body weight.
A week after injecting the peptides, blood samples were taken from the survived mice. […] Thus, the peptides 13 and 16 of the invention are not toxic even when administered at concentrations considerably higher than those necessary for their anticancer activity.

Data set [8] deals with NIH-3T3 normal mouse fibroblasts cell line. Kind of data set: XTT proliferation (cytotoxicity) assay, normal fibroblasts. Type of data set: cell-based. The note with it: NIH3T3, pH 7.4, 24 h. On the procedure: as §1, §2, §3, §4, §5, §6
Data set [9] concerns AI CL1 human PC cells xenograft. Kind of data set: Inhibition of tumor growth in human prostate cancer xenografts, CL1. Type of data set: in vivo, nude male mice. The following applies: CL1 xenograft, 1 mg/kg intratumorally, 9 doses. On the procedure:
(§7) (i) Inhibition of tumor growth in human prostate cancer xenografts. Subcutaneouse (s.c.) implantation of human PC cells in mice was done as previously described in Gavish et al. (Gavish et al. 2002). Briefly, 0.1 ml AI CL1 or 22RV1 human PC cells (5×10^6 cells) in Matrigel were inoculated s.c. into the dorsal side of five to six week-old nude male mice weighing 20-25 g (Harlen Co., Israel). Two weeks after cell implantation, when the tumors diameter reached ≧5 mm (denoted as day 1), the diastereomer 13 and its all L-amino acid analog peptide (at 1 mg/kg, 0.1 mM), or vehicle (PBS, pH=7.4) were injected intratumorally (dosing volume of 2.5 ml/kg) three times a week for a total of 9 doses. Tumor size was measured by a caliper and recorded twice a week during a period of 28 days. Mice were weighed and tumor weight (mg) was estimated by using the formula of length×width×depth×0.52 in mm^3, assuming the specific gravity to be 1. At the end of the treatment, the mice were killed, and the tumors were removed, photographed, and weighed. The animal experimentation was conducted according to the rules of the Institutional Animal Care and Use Committee.
For orientation: Xenograft models place foreign cells or tissue in a host animal.

Data set [10] concerns 22RV1 human PC cells xenograft. The experiment in a line: Inhibition of tumor growth in human prostate cancer xenografts, 22RV1. Type of data set: in vivo, nude male mice. The following applies: 22RV1 xenograft, 1 mg/kg intratumorally, 9 doses. As to the method:
as §7
Serum PSA levels. Four weeks after the first treatment, blood was withdrawn from the 22RV1-inoculated mice in order to determine the level of prostate specific antigen (PSA). The blood samples were taken directly to heparin containing tubes, centrifuged, and the supernatants were stored at −20° C. The CanAg PSA EIA kit (CanAg Diagnostics) was used to determine the total PSA in the mice plasma (Gavish et al., 2002). Tumor weight and PSA levels, represented as the mean±SE, were calculated from the raw data and then subjected to Student's t test. A value of P<0.05 was considered as statistically significant.

The nature of data set [11]: Interaction with Matrigel matrix, analysed by RP-HPLC and mass spectroscopy. The class given is in vitro ADME. The note with it: mixed with Matrigel matrix for one hour.
The mark [12] stands for this setting: i.v., 3 mg/kg, one dose per day for 2 days.
Where [13] appears, read: i.v., 9 mg/kg, one dose per day for 2 days.
Setting [14] is: i.v., 15 mg/kg, one dose per day for 2 days.
Where [15] appears, read: i.v., 20 mg/kg, one dose per day for 2 days.

Usually mortality stands for the share of the test organisms that died. Low readings indicate a weak lethal effect, high ones a strong lethal effect. Consider `CC(C)C[C@H](NC(=O)[C@H](CC(C)C)NC(=O)[C@@H](CCCCN)NC(=O)[C@H](CC(C)C)NC(=O)[C@H](CC(C)C)NC(=O)[C@H](CCCCN)NC(=O)[C@@H](CCCCN)NC(=O)[C@@H](CC(C)C)NC(=O)[C@H](CC(C)C)NC(=O)[C@@H](CCCCN)NC(=O)[C@H](CCCCN)NC(=O)[C@H](CC(C)C)NC(=O)[C@@H](CC(C)C)NC(=O)[C@H](CCCCN)NC(=O)[C@@H](N)CC(C)C)C(N)=O` [Peptide 1, reference compound] (H-LK[dL]LK[dK]L[dL][dK]KLL[dK]LL-NH2), for which the CC50 at 24 h in [1] (NIH3T3, pH 6, 24 h) worked out at 25 µg/mL (≈ 13.9 µM); in data set [1] (NIH3T3, pH 7.4, 24 h), 50 µg/mL (≈ 27.7 µM). The “Lethal Concentration (LC50)” value in [2] (CL1, pH 6, 24 h) turned out to be 9.3 µg/mL; in [2] (CL1, pH 7.4, 24 h), 6.25 µg/mL; in data set [3] (22RV1, pH 6, 24 h), 25 µg/mL; in data set [3] (22RV1, pH 7.4, 24 h), 12.5 µg/mL; in [4] (pH 6, 24 h), 12.5 µg/mL; in data set [4] (pH 7.4, 24 h), 12.5 µg/mL. Besides, the “Lethal Concentration (LC50)” value came to 4.7 µg/mL in data set [5] (DU145, pH 6, 24 h); 4.7 µg/mL in data set [5] (DU145, pH 7.4, 24 h); 6.2 µg/mL in data set [6]. Moreover, the mortality in data set [7] (concentrations considerably higher than those necessary for anticancer activity) is 100%; in data set [7] (setting [12]), “No mortality”; in [7] (setting [13]), “No mortality”; in data set [7] (setting [14]) it was 100%; in data set [7] (setting [15]), 100%.
Turning to `CC(C)C[C@H](NC(=O)[C@H](CC(C)C)NC(=O)[C@@H](Cc1c[nH]cn1)NC(=O)[C@H](CC(C)C)NC(=O)[C@H](CC(C)C)NC(=O)[C@H](Cc1c[nH]cn1)NC(=O)[C@@H](Cc1c[nH]cn1)NC(=O)[C@@H](CC(C)C)NC(=O)[C@H](CC(C)C)NC(=O)[C@@H](CCCCN)NC(=O)[C@H](Cc1c[nH]cn1)NC(=O)[C@H](CC(C)C)NC(=O)[C@@H](CC(C)C)NC(=O)[C@H](Cc1c[nH]cn1)NC(=O)[C@@H](N)CC(C)C)C(N)=O` [Peptide 16] (H-LH[dL]LH[dK]L[dL][dH]HLL[dH]LL-NH2), the CC50 at 24 h in data set [1] (NIH3T3, pH 6, 24 h) was 25 µg/mL (≈ 13.5 µM). In addition, the “Lethal Concentration (LC50)” value in [8] amounted to 100 µg/mL; in data set [2] (CL1, pH 7.4, 24 h), 12.5 µg/mL; in [3] (22RV1, pH 6, 24 h) it was 12.5 µg/mL; in [4] (pH 7.4, 24 h), 50 µg/mL. Also, the “active concentration lower than against NIH-3T3” value in data set [2] (CL1 vs NIH-3T3 at the same pH) is “at least two-fold lower”. The mortality result in data set [7] (setting [12]) is given as “No mortality”; in [7] (setting [13]) it was “No mortality”; in [7] (setting [14]) it was “no mortality”; in data set [7] (setting [15]), “no mortality”; in data set [7] (i.v., 30 mg/kg, one dose per day for 2 days), “No mortality”. Also, in data set [7] (survived mice, a week after injection), the “blood differential and biochemistry tests” value was “in the range of normal values”.
With “LKLLHKLLKHLLKLL-NH2 [all L-amino acid analog peptide, reference compound]”, the tumor weight entry in [9] and in data set [10] was “inactive” in each case. Further, the “activity preserved upon interaction with the Matrigel matrix” value in data set [11] was “fully inactivated”.

The values are drawn from patent US20090305954A1, “HISTIDINE-CONTAINING DIASTEREOMERIC PEPTIDES AND USES THEREOF” (Yeda Research and Development Co. Ltd., priority 2005, published 2009).
